What was measured:
[1] = system: m^6A methylation of MOLM-13 transcriptome; test: m^6A-seq and sequencing data analysis (differential methylation peaks, motifs, annotation, GO enrichment); type: cell-based, human
Method: mRNA was purified using a GenElute™ mRNA Miniprep Kit (SIGMA, MRN10-1KT, St. Louis, MO, USA) according to the manufacturer’s protocol. Briefly, the total RNA was mixed with 2× Binding Solution and oligo(dT) beads, vortexed, and left for 10 min at room temperature. The beads:mRNA complex was passed through a GenElute spin filter/collection tube and washed twice with Wash Solution. The mRNA was eluted in an Elution Solution incubated at 70 °C.
m^6A-seq was performed using the EpiMark® N^6-Methyladenosine Enrichment Kit (NEB, E1610S). Briefly, 25 μL of Dynabeads™ Protein G (Invitrogen, 10004D) and 1 μL of N^6-Methyladenosine Antibody were incubated in a 4 °C rotator for 2 h. The purified mRNA was fragmented at 95 °C for 10 min in a fragmentation buffer (100 mM Tris (pH 8.0), 8 mM MgCl2) with spike-in control RNA (m^6A and unmodified, 0.1 fmol of each RNA). The fragmented RNA was concentrated with RNA Clean & Concentrator™-5 (ZYMO […], R1014, Irvine, CA, USA) and then 5% was saved as the input. The remaining 95% of the fragmented RNA was added to the beads/antibody complex. RNA was eluted in Buffer RLT (QIAGEN, 79216, Hilden, Germany), followed by ethanol precipitation and was used for sequencing library construction. All sequencing experiments were performed in triplicate via Novaseq. Adapter trimming and QC were performed using Trim Galore. Reads were mapped to hg38 by HISAT2 [56], and exomePeak and HOMER [58] were used to analyze the differential methylation peaks, motifs, and gene annotations.

MLL4 complex = target: T1, MLL4 complex (Homo sapiens, UniProt Q9UMN6); test: Methyltransferase selectivity panel (MT HotSpot radioisotope assay), MLL4 complex; type: biochemical; conditions: 10 μM eltrombopag
T1 construct: purchased Reaction Biology (Malvern, PA, USA), contract assay
Method: (§1) The selectivity profile of eltrombopag was investigated by testing the level of inhibition in a methyltransferase panel. The inhibition of 7 […] methyltransferase was tested at Reaction Biology (Malvern, PA, USA) using a gold standard radioisotope-based MT assay (MT HotSpot^TM) with 10 μM of eltrombopag in duplicate.

PRMT1 = target: T2, PRMT1 (Homo sapiens, UniProt Q99873); test: Methyltransferase selectivity panel (MT HotSpot radioisotope assay), PRMT1; type: biochemical; conditions: 10 μM eltrombopag
T2 construct: purchased Reaction Biology (Malvern, PA, USA), contract assay
T2 sequence (Q99873 whole entry): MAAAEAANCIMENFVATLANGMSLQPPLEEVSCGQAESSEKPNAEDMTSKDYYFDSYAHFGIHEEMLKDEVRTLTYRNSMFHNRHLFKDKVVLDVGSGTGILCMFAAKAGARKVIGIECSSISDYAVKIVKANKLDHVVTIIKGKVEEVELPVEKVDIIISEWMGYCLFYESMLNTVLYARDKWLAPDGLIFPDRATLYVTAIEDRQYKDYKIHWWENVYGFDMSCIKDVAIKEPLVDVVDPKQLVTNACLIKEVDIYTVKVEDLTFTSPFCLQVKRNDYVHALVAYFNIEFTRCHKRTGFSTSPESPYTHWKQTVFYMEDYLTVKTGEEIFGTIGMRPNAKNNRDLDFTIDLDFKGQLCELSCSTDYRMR
Source text: The selectivity profile of eltrombopag was investigated by testing the level of inhibition in a methyltransferase panel.

[2] = target: T3, truncated METTL3-14 complex (Homo sapiens, UniProt Q86U44); test: Bioluminescence enzyme assay, truncated form of METTL3-14 (methyltransferase domain); type: biochemical
T3 construct: MTase domain of human METTL3 (residues 369 to 580); METTL14 (residues 106 to 396); 10x His (thrombin-cleavable) (cleaved yes); made in house; host or cells: Trichoplusia ni (Hi5) cells co-infected with two baculoviruses
T3 sequence (Q86U44 369-580): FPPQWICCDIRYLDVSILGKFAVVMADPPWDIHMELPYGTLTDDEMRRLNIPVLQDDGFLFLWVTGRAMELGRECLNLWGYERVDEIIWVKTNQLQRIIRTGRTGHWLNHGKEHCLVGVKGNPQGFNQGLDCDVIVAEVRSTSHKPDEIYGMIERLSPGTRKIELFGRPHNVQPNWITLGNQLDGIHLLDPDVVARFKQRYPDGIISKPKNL
T3 sequence (Q9HCE5 106-396 partner limits assumed): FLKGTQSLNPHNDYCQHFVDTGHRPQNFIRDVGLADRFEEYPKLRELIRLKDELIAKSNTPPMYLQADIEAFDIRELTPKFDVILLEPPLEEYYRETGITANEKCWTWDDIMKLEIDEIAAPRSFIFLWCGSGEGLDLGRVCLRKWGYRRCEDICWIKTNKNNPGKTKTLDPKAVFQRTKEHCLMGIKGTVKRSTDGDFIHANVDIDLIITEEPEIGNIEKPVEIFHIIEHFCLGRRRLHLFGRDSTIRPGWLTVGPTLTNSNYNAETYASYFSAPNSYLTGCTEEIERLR
Method: An enzymatic bioluminescence assay was established to identify the METTL3-14 inhibitor through screening. […] METTL3-14 activity was assessed by measuring the luminescence using a Victor multilabel reader (PerkinElmer, Waltham, MA, USA). The IC50 values were calculated by a nonlinear regression analysis using OriginPro 9.1 software (OriginLab).
To confirm the mechanism of action of eltrombopag in the METTL3-14 complex, 30 nM METTL3-14 and serially diluted eltrombopag were reacted with various concentrations of SAM or RNA substrate and saturating concentrations of the other substrate (3 μM SAM or 2 μM RNA substrate) for 20 min. To evaluate the inhibitory activity in a single form of METTL3 and METTL14, 1 μM of METTL3 and 300 nM of METTL14 were incubated with 1 μM of SAM, 500 nM of RNA substrates, and serially diluted eltrombopag for 5 h. To measure the inhibitory activity in the truncated form of the METTL3-14 complex, 1 μM of the truncated METTL3-14 complex was reacted with 1 μM of SAM, 500 nM of RNA substrates, and serially diluted eltrombopag for 5 h.

[3] = system: m^6A/A on poly-A+-enriched mRNA of MOLM-13 cells; test: Quantitative analysis of m^6A level on poly-A+-enriched mRNA by mass spectrometry; type: cell-based; conditions: Homo sapiens
Method: The MOLM-13 cells were seeded in 10 cm^2 dishes at a density of 1.5 × 10^6 cells/mL with 10 mL of complete medium. After 24 h, the plated cells were treated with the vehicle (DMSO) or serial dilutions of eltrombopag and incubated for 24 h. Following incubation in the cell culture incubator, total RNA was extracted using TRIsure^TM (Bioline, Brisbane, Australia) according to the manufacturer’s instructions. Then, poly-A^+-enriched mRNA was purified from the extracted total RNA using the Magnosphere^TM ultrapure mRNA purification kit (Takara, Shiga, Japan). One microgram of mRNA was digested to the nucleosides using 2 units of nuclease P1 (NEB) and dephosphorylated using 1 unit of alkaline phosphatase (NEB) at 37 °C for 2 h.
The produced nucleosides were detected by reversed-phase high-performance liquid chromatography on an ACQUITY BEH C18 column (1.7 μm, 2.1 mm × 50 mm; Waters) coupled with mass spectrometry detection using an EVOQ Elite ER LC-TQ (Bruker). The adenosine and m^6A were quantified using MRM transition as follows: m/z = 267.9 -> 136.1 and m/z = 282.1 -> 150.1, respectively. (Retention time 5 min). The m^6A/A nucleoside ratio of the eltrombopag-treated sample was normalized to the corresponding value of the DMSO treated negative control. The inhibition curves were plotted using OriginPro 9.1 software (OriginLab) and fitted using nonlinear regression analysis.

PRDM9 = target: T4, PRDM9 (Homo sapiens, UniProt Q9NQV7); test: Methyltransferase selectivity panel (MT HotSpot radioisotope assay), PRDM9; type: biochemical; conditions: 10 μM eltrombopag
T4 construct: purchased Reaction Biology (Malvern, PA, USA), contract assay
T4 sequence (Q9NQV7 whole entry): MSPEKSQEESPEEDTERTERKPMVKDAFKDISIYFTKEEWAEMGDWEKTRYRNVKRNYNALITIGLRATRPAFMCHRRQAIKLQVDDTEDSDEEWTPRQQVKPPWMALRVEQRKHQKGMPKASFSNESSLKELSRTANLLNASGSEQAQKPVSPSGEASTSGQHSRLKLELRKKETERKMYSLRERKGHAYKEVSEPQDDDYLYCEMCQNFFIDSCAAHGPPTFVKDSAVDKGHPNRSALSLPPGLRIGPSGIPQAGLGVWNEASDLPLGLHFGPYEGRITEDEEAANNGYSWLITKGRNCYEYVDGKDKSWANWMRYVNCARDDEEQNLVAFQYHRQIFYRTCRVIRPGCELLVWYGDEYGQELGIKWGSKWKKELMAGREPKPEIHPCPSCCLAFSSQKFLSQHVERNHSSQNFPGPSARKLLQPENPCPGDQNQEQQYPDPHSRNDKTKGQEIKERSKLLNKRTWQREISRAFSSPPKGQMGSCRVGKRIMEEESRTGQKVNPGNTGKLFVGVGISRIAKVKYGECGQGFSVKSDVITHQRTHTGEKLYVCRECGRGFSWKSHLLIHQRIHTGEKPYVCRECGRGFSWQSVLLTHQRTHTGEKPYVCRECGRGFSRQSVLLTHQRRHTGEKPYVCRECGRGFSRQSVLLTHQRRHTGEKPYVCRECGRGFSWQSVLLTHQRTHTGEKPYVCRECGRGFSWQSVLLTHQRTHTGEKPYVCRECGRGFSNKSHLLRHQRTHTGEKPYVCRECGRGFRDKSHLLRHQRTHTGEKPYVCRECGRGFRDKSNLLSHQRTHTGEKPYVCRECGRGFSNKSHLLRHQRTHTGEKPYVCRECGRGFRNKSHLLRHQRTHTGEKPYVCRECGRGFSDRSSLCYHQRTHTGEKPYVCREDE
Method: as §1

With `CC1=NN(c2ccc(C)c(C)c2)C(=O)/C1=N\Nc1cccc(-c2cccc(C(=O)O)c2)c1O` [Eltrombopag] the “number of differential m^6A methylation sites” value ([1]; MOLM-13, 25 μM eltrombopag) was 10,723, the “share of differential m^6A sites hypomethylated” value ([1]; MOLM-13, 25 μM eltrombopag) was 71% and the share of hypermethylation ([1]; MOLM-13, 25 μM eltrombopag) was “about 30%”. The “share of hypomethylated genes that are noncoding-RNA (ncRNA)” value ([1]; eltrombopag-treated MOLM-13) was 17%, the “share of hypomethylated genes that are protein-coding” value ([1]; eltrombopag-treated MOLM-13) was ~ 80% and the “share of hypomethylated genes that are pseudogenes” value ([1]; eltrombopag-treated MOLM-13) was 3%. For the same compound, the remaining activity at 10 µM (MLL4 complex) was 70.9 ± 2.4%, the remaining activity at 10 µM (PRMT1) was 96.1 ± 3.9% and the “fold change of IC50, truncated versus full length METTL3-14” value [2] was 3.5 fold. The IC50 ([2]; 1 μM truncated complex, 1 μM SAM, 500 nM RNA, 5 h) was 12 µM, the inhibition at 40 µM ([3]; MOLM-13, 40 μM, 24 h, read-out: maximum m^6A inhibition) was 50% and the IC50 ([3]; MOLM-13, 24 h treatment, read-out: IC50 of m^6A/A reduction on poly-A+-enriched mRNA) was 17.3 ± 3.5 µM. It also gave a remaining activity at 10 µM (PRDM9) of 130 ± 4%.

Source: paper PMC9032718, “Eltrombopag as an Allosteric Inhibitor of the METTL3-14 Complex Affecting the m^6A Methylation of RNA in Acute Myeloid Leukemia Cells” (Pharmaceuticals, 2022)
